Experimental data taken from ChEMBL document CHEMBL1156206, “Pyrazolone-fused combretastatins and their precursors: synthesis, cytotoxicity, antitubulin activity and molecular modeling studies” (Bioorg Med Chem, 2010).
The source made the active and inactive calls. The calls are words filed in the database; no cut-off is given here.

test system: HeLa; test: Cell cycle arrest in human HeLa cells assessed as accumulation of cells in S phase at 0.2 uM after 24 hrs using propidium iodide by flow cytometry; assay type: functional; conditions: not given

Structure (SMILES)	Activity [%]
COC(=O)NNC(=O)/C(=C/c1ccc2ccccc2c1)c1cc(OC)c(OC)c(OC)c1	10.8

test system: HEp-2; test: Cytotoxicity against human Hep2 cells after 72 hrs by MTT assay; assay type: functional, cell-based; conditions: HEp-2, 72 h

Structure (SMILES)	IC50 [nM]
COc1ccc(-c2[nH][nH]c(=O)c2-c2cc(OC)c(OC)c(OC)c2)cc1	529
COc1ccc(-c2[nH][nH]c(=O)c2-c2cc(OC)c(OC)c(OC)c2)cc1F	1180
COc1ccc(/C=C\c2cc(OC)c(OC)c(OC)c2)cc1O [COMBRETASTATIN A4]	5.5
COc1ccc(-c2[nH][nH]c(=O)c2-c2cc(OC)c(OC)c(OC)c2)cc1O	1140
COC(=O)NNC(=O)/C(=C/c1ccc2ccccc2c1)c1cc(OC)c(OC)c(OC)c1	54

test system: HeLa; test: Cell cycle arrest in human HeLa cells assessed as accumulation of cells in G0/1 phase at 0.02 uM after 24 hrs using propidium iodide by flow cytometry; assay type: functional; conditions: not given

Structure (SMILES)	Activity [%]
COC(=O)NNC(=O)/C(=C/c1ccc2ccccc2c1)c1cc(OC)c(OC)c(OC)c1	60.2

test system: HeLa; test: Cell cycle arrest in human HeLa cells assessed as accumulation of cells in G2/M phase at 0.02 uM after 24 hrs using propidium iodide by flow cytometry; assay type: functional; conditions: not given

Structure (SMILES)	Activity [%]
COC(=O)NNC(=O)/C(=C/c1ccc2ccccc2c1)c1cc(OC)c(OC)c(OC)c1	11.5

test system: HeLa; test: Induction of microtubule network disruption in human HeLa cells at 2.2 uM after 24 hrs by immunofluorescence assay; assay type: functional, cell-based; conditions: not given

Structure (SMILES)	Activity
COC(=O)NNC(=O)/C(=C/c1ccc2ccccc2c1)c1cc(OC)c(OC)c(OC)c1	Active

test system: HeLa; test: Cell cycle arrest in human HeLa cells assessed as accumulation of cells in S phase at 0.02 uM after 24 hrs using propidium iodide by flow cytometry; assay type: functional; conditions: not given

Structure (SMILES)	Activity [%]
COC(=O)NNC(=O)/C(=C/c1ccc2ccccc2c1)c1cc(OC)c(OC)c(OC)c1	28.3

test system: HeLa; test: Cell cycle arrest in human HeLa cells assessed as accumulation of cells in G0/1 phase at 2.2 uM after 24 hrs using propidium iodide by flow cytometry; assay type: functional; conditions: not given

Structure (SMILES)	Activity [%]
COC(=O)NNC(=O)/C(=C/c1ccc2ccccc2c1)c1cc(OC)c(OC)c(OC)c1	1.2

test system: not listed separately; test: Inhibition of tubulin polymerization; conditions: not given

Structure (SMILES)	IC50 [nM]
COc1ccc(-c2[nH][nH]c(=O)c2-c2cc(OC)c(OC)c(OC)c2)cc1	2600
COc1ccc(/C=C\c2cc(OC)c(OC)c(OC)c2)cc1O [COMBRETASTATIN A4]	1700
COc1ccc(-c2[nH][nH]c(=O)c2-c2cc(OC)c(OC)c(OC)c2)cc1O	1700
COc1cc(-c2c(-c3ccc4ccccc4c3)[nH][nH]c2=O)cc(OC)c1OC	1900
COC(=O)NNC(=O)/C(=C/c1ccc2ccccc2c1)c1cc(OC)c(OC)c(OC)c1	2700

test system: RT-112; test: Cytotoxicity against human RT112 cells after 72 hrs by MTT assay; assay type: functional, cell-based; conditions: RT-112, 72 h

Structure (SMILES)	IC50 [nM]
COc1ccc(-c2[nH][nH]c(=O)c2-c2cc(OC)c(OC)c(OC)c2)cc1	1890
COc1ccc(-c2[nH][nH]c(=O)c2-c2cc(OC)c(OC)c(OC)c2)cc1F	3320
COc1ccc(/C=C\c2cc(OC)c(OC)c(OC)c2)cc1O [COMBRETASTATIN A4]	21.6
COc1ccc(-c2[nH][nH]c(=O)c2-c2cc(OC)c(OC)c(OC)c2)cc1O	2080
COC(=O)NNC(=O)/C(=C/c1ccc2ccccc2c1)c1cc(OC)c(OC)c(OC)c1	196

test system: T-24; test: Cytotoxicity against human T24 cells after 72 hrs by MTT assay; assay type: functional, cell-based; conditions: T-24, 72 h

Structure (SMILES)	IC50 [nM]
COc1ccc(-c2[nH][nH]c(=O)c2-c2cc(OC)c(OC)c(OC)c2)cc1	1160
COc1ccc(-c2[nH][nH]c(=O)c2-c2cc(OC)c(OC)c(OC)c2)cc1F	1150
COc1ccc(/C=C\c2cc(OC)c(OC)c(OC)c2)cc1O [COMBRETASTATIN A4]	8.7
COc1ccc(-c2[nH][nH]c(=O)c2-c2cc(OC)c(OC)c(OC)c2)cc1O	619
COC(=O)NNC(=O)/C(=C/c1ccc2ccccc2c1)c1cc(OC)c(OC)c(OC)c1	185

test system: HeLa; test: Induction of apoptosis in human HeLa cells assessed as cells containing hypodiploid DNA at 2.2 uM after 24 hrs by flow cytometry; assay type: functional; conditions: not given

Structure (SMILES)	Activity [%]
COC(=O)NNC(=O)/C(=C/c1ccc2ccccc2c1)c1cc(OC)c(OC)c(OC)c1	21.4

test system: not listed separately; test: Inhibition of tubulin polymerization at 20 uM relative to control; conditions: not given

Structure (SMILES)	inhibition [%]
COC(=O)n1[nH]c(=O)c(-c2cc(OC)c(OC)c(OC)c2)c1-c1cccc(F)c1	1
COC(=O)NNC(=O)/C(=C/c1ccc(OC)cc1)c1cc(OC)c(OC)c(OC)c1	26
COC(=O)NNC(=O)/C(=C/c1cccc(F)c1)c1cc(OC)c(OC)c(OC)c1	10
COc1cc(-c2c(-c3cccc4ccccc34)[nH][nH]c2=O)cc(OC)c1OC	0
COC(=O)NNC(=O)/C(=C/c1ccc(OC)c(F)c1)c1cc(OC)c(OC)c(OC)c1	66
COC(=O)NNC(=O)/C(=C/c1cccc2ccccc12)c1cc(OC)c(OC)c(OC)c1	55
COc1ccc(-c2c(-c3cc(OC)c(OC)c(OC)c3)[nH][nH]c2=O)cc1OC	4
COc1ccc(-c2[nH][nH]c(=O)c2-c2cc(OC)c(OC)c(OC)c2)cc1	100
COc1ccc(-c2[nH][nH]c(=O)c2-c2cc(OC)c(OC)c(OC)c2)cc1F	100
COc1cc(-c2c(-c3cccc(F)c3)[nH][nH]c2=O)cc(OC)c1OC	0
COc1ccc(/C=C\c2cc(OC)c(OC)c(OC)c2)cc1O [COMBRETASTATIN A4]	89
COc1ccc(-c2[nH][nH]c(=O)c2-c2cc(OC)c(OC)c(OC)c2)cc1O	99
COc1cc(-c2c(-c3ccc4ccccc4c3)[nH][nH]c2=O)cc(OC)c1OC	98
COC(=O)NNC(=O)/C(=C/c1ccc2ccccc2c1)c1cc(OC)c(OC)c(OC)c1	97

test system: MIA PaCa-2; test: Cytotoxicity against human MIAPaCa2 cells after 72 hrs by MTT assay; assay type: functional, cell-based; conditions: MIA PaCa-2, 72 h

Structure (SMILES)	IC50 [nM]
COc1ccc(-c2[nH][nH]c(=O)c2-c2cc(OC)c(OC)c(OC)c2)cc1	575
COc1ccc(-c2[nH][nH]c(=O)c2-c2cc(OC)c(OC)c(OC)c2)cc1F	556
COc1ccc(/C=C\c2cc(OC)c(OC)c(OC)c2)cc1O [COMBRETASTATIN A4]	7.2
COc1ccc(-c2[nH][nH]c(=O)c2-c2cc(OC)c(OC)c(OC)c2)cc1O	462
COC(=O)NNC(=O)/C(=C/c1ccc2ccccc2c1)c1cc(OC)c(OC)c(OC)c1	127

test system: HeLa; test: Induction of apoptosis in human HeLa cells assessed as cells containing hypodiploid DNA at 0.02 uM after 24 hrs by flow cytometry; assay type: functional; conditions: not given

Structure (SMILES)	Activity [%]
COC(=O)NNC(=O)/C(=C/c1ccc2ccccc2c1)c1cc(OC)c(OC)c(OC)c1	6.9

test system: HeLa; test: Induction of microtubule network disruption in human HeLa cells at 0.2 uM after 24 hrs by immunofluorescence assay; assay type: functional, cell-based; conditions: not given

Structure (SMILES)	Activity
COC(=O)NNC(=O)/C(=C/c1ccc2ccccc2c1)c1cc(OC)c(OC)c(OC)c1	Active

test system: HeLa; test: Induction of apoptosis in human HeLa cells assessed as cells containing hypodiploid DNA at 0.2 uM after 24 hrs by flow cytometry; assay type: functional; conditions: not given

Structure (SMILES)	Activity [%]
COC(=O)NNC(=O)/C(=C/c1ccc2ccccc2c1)c1cc(OC)c(OC)c(OC)c1	21.1

test system: HeLa; test: Cell cycle arrest in human HeLa cells assessed as accumulation of cells in G2/M phase at 0.2 uM after 24 hrs using propidium iodide by flow cytometry; assay type: functional; conditions: not given

Structure (SMILES)	Activity [%]
COC(=O)NNC(=O)/C(=C/c1ccc2ccccc2c1)c1cc(OC)c(OC)c(OC)c1	86.6

test system: HeLa; test: Cytotoxicity against human HeLa cells after 72 hrs by MTT assay; assay type: functional, cell-based; conditions: Homo sapiens, HeLa, 72 h; read-out: IC50

Structure (SMILES)	IC50 [nM]
COC(=O)NNC(=O)/C(=C/c1ccc(OC)cc1)c1cc(OC)c(OC)c(OC)c1	1310
COC(=O)NNC(=O)/C(=C/c1cccc(F)c1)c1cc(OC)c(OC)c(OC)c1	> 50000
COc1cc(-c2c(-c3cccc4ccccc34)[nH][nH]c2=O)cc(OC)c1OC	> 50000
COC(=O)NNC(=O)/C(=C/c1ccc(OC)c(F)c1)c1cc(OC)c(OC)c(OC)c1	667
COC(=O)NNC(=O)/C(=C/c1cccc2ccccc12)c1cc(OC)c(OC)c(OC)c1	1300
COc1ccc(-c2c(-c3cc(OC)c(OC)c(OC)c3)[nH][nH]c2=O)cc1OC	> 50000
COc1ccc(-c2[nH][nH]c(=O)c2-c2cc(OC)c(OC)c(OC)c2)cc1	152
COc1ccc(-c2[nH][nH]c(=O)c2-c2cc(OC)c(OC)c(OC)c2)cc1F	158
COc1cc(-c2c(-c3cccc(F)c3)[nH][nH]c2=O)cc(OC)c1OC	> 50000
COc1ccc(/C=C\c2cc(OC)c(OC)c(OC)c2)cc1O [COMBRETASTATIN A4]	2
COc1ccc(-c2[nH][nH]c(=O)c2-c2cc(OC)c(OC)c(OC)c2)cc1O	176
COc1cc(-c2c(-c3ccc4ccccc4c3)[nH][nH]c2=O)cc(OC)c1OC	114
COC(=O)NNC(=O)/C(=C/c1ccc2ccccc2c1)c1cc(OC)c(OC)c(OC)c1	48

same assay, conditions: hela

Structure (SMILES)	IC50
COC(=O)n1[nH]c(=O)c(-c2cc(OC)c(OC)c(OC)c2)c1-c1cccc(F)c1	Not Active

test system: SW-620; test: Cytotoxicity against human SW620 cells after 72 hrs by MTT assay; assay type: functional, cell-based; conditions: SW-620, 72 h

Structure (SMILES)	IC50 [nM]
COc1ccc(-c2[nH][nH]c(=O)c2-c2cc(OC)c(OC)c(OC)c2)cc1	455
COc1ccc(-c2[nH][nH]c(=O)c2-c2cc(OC)c(OC)c(OC)c2)cc1F	487
COc1ccc(/C=C\c2cc(OC)c(OC)c(OC)c2)cc1O [COMBRETASTATIN A4]	23
COc1ccc(-c2[nH][nH]c(=O)c2-c2cc(OC)c(OC)c(OC)c2)cc1O	543
COC(=O)NNC(=O)/C(=C/c1ccc2ccccc2c1)c1cc(OC)c(OC)c(OC)c1	74.3

test system: HEp-2; test: Cytotoxicity against human cisplatin-resistant Hep2 cells after 72 hrs by MTT assay; assay type: functional, cell-based; conditions: HEp-2, 72 h

Structure (SMILES)	IC50 [nM]
COc1ccc(-c2[nH][nH]c(=O)c2-c2cc(OC)c(OC)c(OC)c2)cc1	615
COc1ccc(-c2[nH][nH]c(=O)c2-c2cc(OC)c(OC)c(OC)c2)cc1F	684
COc1ccc(/C=C\c2cc(OC)c(OC)c(OC)c2)cc1O [COMBRETASTATIN A4]	5.2
COc1ccc(-c2[nH][nH]c(=O)c2-c2cc(OC)c(OC)c(OC)c2)cc1O	709
COC(=O)NNC(=O)/C(=C/c1ccc2ccccc2c1)c1cc(OC)c(OC)c(OC)c1	51

test system: HeLa; test: Induction of microtubule network disruption in human HeLa cells at 0.02 uM after 24 hrs by immunofluorescence assay; assay type: functional, cell-based; conditions: not given

Structure (SMILES)	Activity
COc1ccc(/C=C\c2cc(OC)c(OC)c(OC)c2)cc1O [COMBRETASTATIN A4]	Active
COC(=O)NNC(=O)/C(=C/c1ccc2ccccc2c1)c1cc(OC)c(OC)c(OC)c1	inactive

test system: HeLa; test: Cell cycle arrest in human HeLa cells assessed as accumulation of cells in G0/1 phase at 0.2 uM after 24 hrs using propidium iodide by flow cytometry; assay type: functional; conditions: not given

Structure (SMILES)	Activity [%]
COC(=O)NNC(=O)/C(=C/c1ccc2ccccc2c1)c1cc(OC)c(OC)c(OC)c1	2.7

test system: HeLa; test: Cell cycle arrest in human HeLa cells assessed as accumulation of cells in G2/M phase at 2.2 uM after 24 hrs using propidium iodide by flow cytometry; assay type: functional; conditions: not given

Structure (SMILES)	Activity [%]
COc1ccc(/C=C\c2cc(OC)c(OC)c(OC)c2)cc1O [COMBRETASTATIN A4]	91.1
COC(=O)NNC(=O)/C(=C/c1ccc2ccccc2c1)c1cc(OC)c(OC)c(OC)c1	90.5

test system: HeLa; test: Cell cycle arrest in human HeLa cells assessed as accumulation of cells in S phase at 2.2 uM after 24 hrs using propidium iodide by flow cytometry; assay type: functional; conditions: not given

Structure (SMILES)	Activity [%]
COC(=O)NNC(=O)/C(=C/c1ccc2ccccc2c1)c1cc(OC)c(OC)c(OC)c1	7.9
